The subject of data set [1] is human colon cancer (HCT-116). The data set is described as follows: MTT assay HCT116. The class given is cell-based. How it is done: (§1) Mouse breast cancer (4T1), human breast cancer (MDA-MB-468), mouse colon cancer (CT26), human colon cancer (HCT-116), mouse lung cancer (LLC1), human lung cancer (A549), mouse mesenchymal stem cells (mMSC), and human fibroblast cell lines (MRC-5) were used in this study and were consistently cultured in complete Dulbecco’s Modified Eagle Medium (DMEM) (Sigma-Aldrich, St. Louis, MO, USA) in incubator (5% CO2) under standard conditions. Complete DMEM was Dulbecco’s Modified Eagle Medium supplemented with 10% fetal bovine serum (FBS), 1 mmol/L penicillin–streptomycin, 1 mmol/L mixed nonessential amino acids, and 2 mmol/L L-glutamine (Sigma-Aldrich, St. Louis, MO, USA). All cancer cell lines and MRC-5 cell line were obtained from American Type Culture Collection (ATCC, Manassas, VA, USA), but mMSC was manufactured by Gibco (Middlesex County, MA, USA).
(§2) In 96-well microplates, we seeded cancer and non-cancer cells, more exactly 5 × 10^3 cells per well in 100 μL of complete DMEM (Sigma-Aldrich, St. Louis, MO, USA). […] Tested concentration range for all metal-based substances was 3.9–500 μM. After incubation with MTT solution (5 mg/mL; pH 7.2) for 4 h, optical density was determined using Zenyth 3100 microplate multimode detector (Salzburg, Austria). All experiments were performed three times, each in triplicate, and the IC50 values as well as selectivity indexes (IC50 for mMSC or MRC-5/IC50 for mouse or human cancer cells) were calculated.
In general terms: Formazan colour is commonly taken as a measure of viable cells.

Data set [2] relates to mouse colon cancer (CT26). The data set is described as follows: MTT assay CT26. The data set is classed as cell-based. As to the method:
as §1, §2

The test system of the next data set is mouse lung cancer (LLC1). The data set is described as follows: MTT assay LLC1. The class given is cell-based. As to the method: as §1, §2
The subject of data set [3] is Mouse breast cancer (4T1). As to the kind of experiment: MTT assay 4T1. The class given is cell-based. How it is done: as §1, §2
In a further data set the test system is BALB/C female mice. As to the kind of experiment: In vivo toxicity (serum biochemistry, liver and kidney histology). To be noted: 6 mg/kg, H&E, day 30. How it is done:
(§3) Ethics Committee of the Faculty of Medical Sciences of the University of Kragujevac, Serbia, approved all experiments (01-5301/11). ARRIVE guidelines and EU Directive 2010/63/EU for animal experiments were followed. Experimental animals, BALB/C female mice (8–10 weeks old), were housed under standard conditions (temperature-controlled environment, a 12 h light–dark cycle, fed ad libitum, and observed daily) throughout whole duration of experiment. Animals were inoculated with 4T1 cells (3 × 10^4) into the fourth mammary fat pad as previously described. Animals were randomly assigned to experimental or control groups, and after palpable tumors were detected, the pharmacological treatments were started. Female BALB/C mice intraperitoneally received either C3 (3 mg/kg), C3 (6 mg/kg), CDDP (6 mg/kg), or vehicle in distilled water with 0.05% DMSO (Sigma-Aldrich, St. Louis, MO, USA) (untreated group) in five single doses every third day (8 animals per group). Using electronic calipers (Moore and Wright, Sheffield, UK), the sizes of primary 4T1 mammary tumors were morphometrically evaluated. On the 30th day of experiment, animals were sacrificed, blood was collected (for determination of serum levels of ALT, AST, urea, and creatinine), and tissue sections (liver and kidney) were stained with H&E for further analysis. Liver or kidney sections were analyzed by two observers, and the injury levels were determined as previously reported.

A further data set has as its system 4T1 mammary tumors. The data set is described as follows: Breast cancer development in vivo (orthotopic 4T1). Details: species or system BALB/C female mice. The note with it: 6 mg/kg i.p., five single doses every third day, after day 18. As to the method:
as §3

In data set [4] the test system is human fibroblast cell lines (MRC-5). As to the kind of experiment: MTT assay MRC-5. The data set is classed as cell-based. How it is done:
as §1, §2

In data set [5] the test system is human breast cancer (MDA-MB-468). The data set is described as follows: MTT assay MDA-MB-468. The data set is classed as cell-based. As to the method:
as §1, §2

In a further data set the test system is human lung cancer (A549). The data set is described as follows: MTT assay A549. The class given is cell-based. How it is done: as §1, §2
Data set [6] deals with mouse mesenchymal stem cells (mMSC). The data set is described as follows: MTT assay mMSC. The class given is cell-based. The note with it: 24 h. How it is done:
as §1, §2

The subject of data set [7] is CT-DNA. Also on record: method as in PMID 25350363. The note with it: cited from earlier work.
Data set [8] relates to CT-DNA. The data set is described as follows: EB–CT-DNA fluorescence quenching. The class given is binding, calf. To be noted: EB–CT-DNA 8.52 × 10^−5 M, PBS pH 7.4. How it is done:
All samples were prepared in phosphate-buffered saline (PBS, pH 7.4). Stern–Volmer Equation (2) was used to interpret the fluorescence quenching data.

In the next data set the target is T1, BSA (Bos taurus, UniProt P02769).
T1 construct: purchased Sigma-Aldrich
T1 sequence (P02769 25-607): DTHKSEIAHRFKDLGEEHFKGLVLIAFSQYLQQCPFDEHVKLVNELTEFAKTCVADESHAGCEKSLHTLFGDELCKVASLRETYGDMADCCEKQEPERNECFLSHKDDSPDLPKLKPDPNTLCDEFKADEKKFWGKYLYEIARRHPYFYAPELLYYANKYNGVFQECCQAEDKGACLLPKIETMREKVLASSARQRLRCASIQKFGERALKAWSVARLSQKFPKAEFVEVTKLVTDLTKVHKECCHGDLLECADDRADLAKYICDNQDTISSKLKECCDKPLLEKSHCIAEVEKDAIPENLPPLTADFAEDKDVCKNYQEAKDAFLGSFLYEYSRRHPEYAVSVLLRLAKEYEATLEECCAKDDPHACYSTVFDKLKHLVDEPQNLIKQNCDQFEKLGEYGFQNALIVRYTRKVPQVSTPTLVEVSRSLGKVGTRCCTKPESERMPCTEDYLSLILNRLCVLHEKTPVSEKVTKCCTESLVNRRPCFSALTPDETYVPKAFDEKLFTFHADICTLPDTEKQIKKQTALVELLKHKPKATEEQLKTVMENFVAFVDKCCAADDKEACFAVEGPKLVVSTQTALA
As to the kind of experiment: BSA tryptophan fluorescence quenching. The data set is classed as binding, bovine. As to the method: The protein binding study was carried out using tryptophan fluorescence quenching experiments with BSA. […] Fluorescence emission spectra were recorded between 300 and 500 nm, with excitation at 295 nm.
The quenching constant Ksv was determined based on the Stern–Volmer relationship, as described by Equation (3):I0/I = 1 + kqτ0[Q] = 1 + Ksv[Q](3)
In this equation, I0 and I refer to the fluorescence intensities of BSA measured without and with the quencher (complex), τ0 represents the average fluorescence lifetime of free BSA (∼10^−8 s), and [Q] indicates the quencher concentration.
Parameters such as association binding constant (K) and the number of binding sites per albumin (n) were obtained from Scatchard Equation (4):(ΔI/I0)/[Q] = nK − KΔI/I0(4)
To minimize inner filter, both intensities of fluorescence originating from excitation and emission light absorption and re-absorption were corrected by employing Equation (5); Icor and Iobs are the corrected and observed fluorescence intensities, respectively, and Aex and Aem represent the absorbance of the metal complex at the excitation and emission wavelengths, respectively.Icor = Iobs · […]^(Aex + Aem)/2(5)

Data set [9] deals with CT-DNA. As to the kind of experiment: UV-Vis absorption titration with CT-DNA. The class given is binding, calf. To be noted: ΔG = −RT lnKb. As to the method:
All DNA-binding studies were conducted in 0.01 M phosphate-buffered saline (PBS, pH 7.40) at 25 °C. […] To eliminate absorbance from CT-DNA, identical amounts of DNA were added to both the test and reference solutions prior to spectral recording.
Intrinsic binding constants (Kb) were calculated using the equation to determine the DNA-binding affinities of the complexes (1):[DNA]/(εa − εf) = [DNA]/(εb − εf) + 1 [Kb(εb − εf)](1)
[DNA] represents the concentration of DNA; apparent extinction coefficient, εa, was calculated as the ratio of the observed absorbance to the concentration of the complex (Aobs/[complex]); and εb and εf correspond to the extinction coefficients of the complex in the fully bound and free forms, respectively. Kb was determined from the ratio of the slope to the intercept obtained from the corresponding linear plots.

The source of these data is PMC12567082, “Silver(I) Complexes Bearing S-Alkyl Thiosalicylic Acid Derivatives: DNA/BSA Binding and Antitumor Activity In Vitro and In Vivo” (Pharmaceutics, 2025).

For the compound `[NH2][Pt]([NH2])([Cl])[Cl]` [CDDP, cisplatin, reference compound], the IC50 in [1] (HCT 116, 24 h) was 63.3 ± 3.21 µM; in [1] (HCT 116, 48 h) it was 15.8 ± 1.28 µM; in data set [2] (CT26, 24 h) it was 16.9 ± 1.42 µM; in the data set with mouse lung cancer (LLC1) (LLC1, 24 h), 21.8 ± 1.11 µM; in [3] (4T1, 24 h) it was 12 ± 1.98 µM; in data set [3] (4T1, 48 h), 5.17 ± 0.98 µM. The IC50 turned out to be 40.5 ± 0.57 µM in [4] (MRC-5, 24 h); 27.4 ± 0.72 µM in data set [4] (MRC-5, 48 h); 4.06 ± 0.97 µM in data set [5] (MDA-MB-468, 24 h); 23.2 ± 1.77 µM in the data set with human lung cancer (A549) (A549, 24 h); 14 ± 1.44 µM with human lung cancer (A549) (A549, 48 h); 17.1 ± 1.15 µM in data set [6]. The “Selectivity Index (IC50 mMSC or MRC-5/ IC50 Cancer Cell)” value (“Selectivity Index” below) in data set [1] (HCT-116, 24 h) was 0.64; in data set [1] (HCT-116, 48 h) it was 1.73; in [2] (CT26, 24 h) it was 1.01; in the data set with mouse lung cancer (LLC1) (LLC1, 24 h) it was 0.79; in data set [3] (4T1, 24 h) it was 1.43; in [5] (MDA-MB-468, 24 h), 9.98. For the same compound, the “Selectivity Index” value came to 1.74 in the data set on human lung cancer (A549) (A549, 24 h) and 1.95 with human lung cancer (A549) (A549, 48 h). Moreover, in the data set on BALB/C female mice, the “liver changes (histopathology)” value is “piecemeal necrosis, focal lytic necrosis, and portal inflammation”. For the same compound, the “tumor growth compared to the untreated group” value with 4T1 mammary tumors is given as “significantly slower”.

For the compound `CSc1ccccc1C(=O)O` [L1, S-methyl derivative of thiosalicylic acid], the IC50 in [3] (4T1, 48 h) was 443 ± 30.5 µM; in data set [4] (MRC-5, 48 h), 488 ± 41.6 µM.

`CCSc1ccccc1C(=O)O` [L2, S-ethyl derivative of thiosalicylic]: the IC50 was 465 ± 39.5 µM in [2] (CT26, 48 h); 500 ± 7.6 µM in [3] (4T1, 48 h); 384 ± 20.5 µM in data set [4] (MRC-5, 48 h).

Take `CCCSc1ccccc1C(=O)O` [L3, S-propyl derivative of thiosalicylic acid]: the IC50 in data set [3] (4T1, 48 h) amounted to 500 ± 30.5 µM; in the data set on human lung cancer (A549) (A549, 48 h), 500 ± 47.3 µM.

For `CCCCSc1ccccc1C(=O)O` [L4, S-butyl derivative of thiosalicylic], the IC50 in data set [2] (CT26, 48 h) is 368 ± 58.3 µM; in [3] (4T1, 24 h) it was 407 ± 35.1 µM; in data set [3] (4T1, 48 h), 417 ± 61.4 µM; in data set [5] (MDA-MB-468, 48 h), 408 ± 12.7 µM; in the data set on human lung cancer (A549) (A549, 24 h), 494.9 ± 3.58 µM; with human lung cancer (A549) (A549, 48 h), 490 ± 22 µM.

On to `CC[n+]1c(-c2ccccc2)c2cc(N)ccc2c2ccc(N)cc21.[Br-]` [ethidium bromide, 3,8-diamino-5-ethyl-6-phenylphenanthridinium bromide], for which, in the data set on CT-DNA [7], the Kb entry was “(1.23 ± 0.07) × 10^5 M^−1”.

On to [Ag2(S-Methyl-Thiosal)2] [C1], for which, in the data set with CT-DNA [8], the “Ksv EB (Stern–Volmer constant)” value was “(6.0 ± 0.1) × 10^3 M^−1”. The “kq (quenching rate constant)” value at BSA (BSA 2 µM) was “(1.7 ± 0.1) × 10^13 M^−1 s^−1”. The “Ksv (Stern–Volmer constant)” value at BSA (BSA 2 µM, λex 295 nm) was “(1.7 ± 0.1) × 10^5 M^−1”. Besides, the “K (binding constant)” value on BSA (Scatchard equation) is “(1.7 ± 0.1) × 10^5 M^−1”. Moreover, at BSA (Scatchard equation), the “n (number of binding sites)” value is listed as 0.8. The IC50 in the data set on mouse lung cancer (LLC1) (LLC1, 24 h) was determined as 39.8 ± 1.07 µM; with mouse lung cancer (LLC1) (LLC1, 48 h), 32 ± 1.47 µM; in data set [3] (4T1, 48 h), 4 ± 0.95 µM; in data set [4] (MRC-5, 24 h) it was 46.3 ± 1.52 µM; in data set [4] (MRC-5, 48 h), 53.2 ± 1.27 µM; in [5] (MDA-MB-468, 24 h) it was 4.19 ± 0.98 µM. Besides, the IC50 in [5] (MDA-MB-468, 48 h) is 4.37 ± 0.41 µM; in the data set with human lung cancer (A549) (A549, 24 h), 58.3 ± 1.91 µM; in the data set with human lung cancer (A549) (A549, 48 h), 48.6 ± 1.06 µM. For the same compound, the “Selectivity Index” value worked out at 11.05 in data set [5] (MDA-MB-468, 24 h); 12.18 in data set [5] (MDA-MB-468, 48 h); 0.79 with human lung cancer (A549) (A549, 24 h); 1.10 in the data set with human lung cancer (A549) (A549, 48 h). Also, in the data set with CT-DNA [9], the “ΔG (Gibbs free energy)” value was -6.64 kcal/mol.

A word on the IC50: it is the concentration needed to halve the response being measured. A lower IC50 goes with greater potency in that assay.
